From PubChem BioAssay (NCI)
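Abbreviation: GI50, concentration required for 50% inhibition of growth. TGI: total growth inhibition.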

Experiments:
Assay in all cases: NCI-60 cell line screen, 384-well format
786-0 renal = system: 786-0 renal
A498 renal = system: A498 renal
A549 NSCLC = system: A549 NSCLC
ACHN renal = system: ACHN renal
BT-549 breast = system: BT-549 breast
CAKI-1 renal = system: CAKI-1 renal
CCRF-CEM leukemia = system: CCRF-CEM leukemia
COLO 205 colon = system: COLO 205 colon
DU-145 prostate = system: DU-145 prostate
EKVX NSCLC = system: EKVX NSCLC
HCC-2998 colon = system: HCC-2998 colon
HCT-116 colon = system: HCT-116 colon
HCT-15 colon = system: HCT-15 colon
HL-60(TB) leukemia = system: HL-60(TB) leukemia
HOP-62 NSCLC = system: HOP-62 NSCLC
HOP-92 NSCLC = system: HOP-92 NSCLC
HS 578T breast = system: HS 578T breast
HT29 colon = system: HT29 colon
IGROV1 ovarian = system: IGROV1 ovarian
K-562 leukemia = system: K-562 leukemia
KM12 colon = system: KM12 colon
LOX IMVI melanoma = system: LOX IMVI melanoma
M14 melanoma = system: M14 melanoma
MALME-3M melanoma = system: MALME-3M melanoma
MCF7 breast = system: MCF7 breast
MDA-MB-435 melanoma = system: MDA-MB-435 melanoma
MDA-MB-468 breast = system: MDA-MB-468 breast
MOLT-4 leukemia = system: MOLT-4 leukemia
NCI-H226 lung = system: NCI-H226 lung
NCI-H23 lung = system: NCI-H23 lung
NCI-H322M lung = system: NCI-H322M lung
NCI-H460 NSCLC = system: NCI-H460 NSCLC
NCI-H522 lung = system: NCI-H522 lung
NCI/ADR-RES ovarian = system: NCI/ADR-RES ovarian
OVCAR-3 ovarian = system: OVCAR-3 ovarian
OVCAR-4 ovarian = system: OVCAR-4 ovarian
OVCAR-8 ovarian = system: OVCAR-8 ovarian
PC-3 prostate = system: PC-3 prostate
RPMI-8226 leukemia = system: RPMI-8226 leukemia
RXF 393 renal = system: RXF 393 renal
SF-268 CNS = system: SF-268 CNS
SF-295 CNS = system: SF-295 CNS
SF-539 CNS = system: SF-539 CNS
SK-MEL-2 melanoma = system: SK-MEL-2 melanoma
SK-MEL-28 melanoma = system: SK-MEL-28 melanoma
SK-MEL-5 melanoma = system: SK-MEL-5 melanoma
SK-OV-3 ovarian = system: SK-OV-3 ovarian
SN12C renal = system: SN12C renal
SNB-19 CNS = system: SNB-19 CNS
SNB-75 CNS = system: SNB-75 CNS
SW-620 colon = system: SW-620 colon
TK-10 renal = system: TK-10 renal
U251 glioblastoma = system: U251 glioblastoma
UACC-257 melanoma = system: UACC-257 melanoma
UACC-62 melanoma = system: UACC-62 melanoma

## CN(C)CCN(C)CC(C)(C)C(=O)/C=C/c1ccc(Cl)c(Cl)c1
786-0 renal
  GI50: 1.46 µM
  TGI: 2.79 µM
A498 renal
  GI50: 1.45 µM
  TGI: 2.77 µM
A549 NSCLC
  GI50: 1.72 µM
  TGI: 3.13 µM
ACHN renal
  GI50: 1.57 µM
  TGI: 2.94 µM
BT-549 breast
  GI50: 1.68 µM
  TGI: 3.06 µM
CAKI-1 renal
  GI50: 1.08 µM
  TGI: 2.29 µM
CCRF-CEM leukemia
  GI50: 0.216 µM
  TGI: 0.479 µM
COLO 205 colon
  GI50: 1.6 µM
  TGI: 2.98 µM
DU-145 prostate
  GI50: 1.6 µM
  TGI: 3 µM
EKVX NSCLC
  GI50: 1.65 µM
  TGI: 3.08 µM
HCC-2998 colon
  GI50: 1.5 µM
  TGI: 2.84 µM
HCT-116 colon
  GI50: 1.27 µM
  TGI: 2.59 µM
HCT-15 colon
  GI50: 1.23 µM
  TGI: 2.53 µM
HL-60(TB) leukemia
  GI50: 0.161 µM
  TGI: 0.309 µM
HOP-62 NSCLC
  GI50: 1.72 µM
  TGI: 3.1 µM
HOP-92 NSCLC
  GI50: 1.09 µM
  TGI: 2.29 µM
HS 578T breast
  GI50: 2 µM
  TGI: 3.44 µM
HT29 colon
  GI50: 1.44 µM
  TGI: 2.99 µM
IGROV1 ovarian
  GI50: 1.48 µM
  TGI: 2.81 µM
K-562 leukemia
  GI50: 1.82 µM
  TGI: 3.25 µM
KM12 colon
  GI50: 0.81 µM
  TGI: 2.06 µM
LOX IMVI melanoma
  GI50: 1.64 µM
  TGI: 3.02 µM
M14 melanoma
  GI50: 1.69 µM
  TGI: 3.08 µM
MALME-3M melanoma
  GI50: 2.05 µM
  TGI: 3.49 µM
MCF7 breast
  GI50: 0.796 µM
  TGI: 2.05 µM
MDA-MB-435 melanoma
  GI50: 1.36 µM
  TGI: 2.65 µM
MDA-MB-468 breast
  GI50: 0.51 µM
  TGI: 0.902 µM
MOLT-4 leukemia
  GI50: 0.215 µM
  TGI: 0.459 µM
NCI-H226 lung
  GI50: 1.47 µM
  TGI: 2.79 µM
NCI-H23 lung
  GI50: 1.47 µM
  TGI: 2.84 µM
NCI-H322M lung
  GI50: 1.31 µM
  TGI: 2.6 µM
NCI-H460 NSCLC
  GI50: 1.41 µM
  TGI: 2.78 µM
NCI-H522 lung
  GI50: 1.33 µM
  TGI: 2.62 µM
NCI/ADR-RES ovarian
  GI50: 1.57 µM
  TGI: 2.92 µM
OVCAR-3 ovarian
  GI50: 1.35 µM
  TGI: 2.64 µM
OVCAR-4 ovarian
  GI50: 1.51 µM
  TGI: 2.85 µM
OVCAR-8 ovarian
  GI50: 1.3 µM
  TGI: 2.59 µM
PC-3 prostate
  GI50: 1.51 µM
  TGI: 2.86 µM
RPMI-8226 leukemia
  GI50: 0.319 µM
  TGI: 0.667 µM
RXF 393 renal
  GI50: 1.08 µM
  TGI: 2.27 µM
SF-268 CNS
  GI50: 1.93 µM
  TGI: 3.35 µM
SF-295 CNS
  GI50: 1.56 µM
  TGI: 2.94 µM
SF-539 CNS
  GI50: 1.34 µM
  TGI: 2.63 µM
SK-MEL-2 melanoma
  GI50: 0.292 µM
  TGI: 0.644 µM
SK-MEL-28 melanoma
  GI50: 1.89 µM
  TGI: 3.31 µM
SK-MEL-5 melanoma
  GI50: 1.19 µM
  TGI: 2.43 µM
SK-OV-3 ovarian
  GI50: 1.28 µM
  TGI: 2.55 µM
SN12C renal
  GI50: 1.32 µM
  TGI: 2.6 µM
SNB-19 CNS
  GI50: 1.75 µM
  TGI: 3.17 µM
SNB-75 CNS
  GI50: 2.02 µM
  TGI: 3.45 µM
SW-620 colon
  GI50: 1.34 µM
  TGI: 2.65 µM
TK-10 renal
  GI50: 1.44 µM
  TGI: 2.75 µM
U251 glioblastoma
  GI50: 1.52 µM
  TGI: 2.87 µM
UACC-257 melanoma
  GI50: 1.45 µM
  TGI: 2.77 µM
UACC-62 melanoma
  GI50: 1.41 µM
  TGI: 2.72 µM
